Experimental data from patent US20240218022A1, “ANTI-VISTA MACROCYCLIC PEPTIDES AND COMPOSITIONS” (BRISTOL-MYERS SQUIBB COMPANY, priority 2022, published 2024).
Positions of bridges follow the written chain, without caps; N, C: chain ends. Non-standard residues stand in square brackets, D forms with d. Residues, ends and D or L forms follow the SMILES beside them. Cit = NC(=O)NCCC[C@H](N)C(=O)O; Ahp(2) = CCCCC[C@H](N)C(=O)O; NHexGly = CCCCCCNCC(=O)O; Nle = CCCC[C@H](N)C(=O)O

Biological target: T1, mouse VISTA (mVISTA) (Mus musculus, UniProt Q9D659)
T1 construct: expressed in transfected cells; host or cells: Human embryonic kidney 293T cells
T1 sequence (Q9D659 33-308): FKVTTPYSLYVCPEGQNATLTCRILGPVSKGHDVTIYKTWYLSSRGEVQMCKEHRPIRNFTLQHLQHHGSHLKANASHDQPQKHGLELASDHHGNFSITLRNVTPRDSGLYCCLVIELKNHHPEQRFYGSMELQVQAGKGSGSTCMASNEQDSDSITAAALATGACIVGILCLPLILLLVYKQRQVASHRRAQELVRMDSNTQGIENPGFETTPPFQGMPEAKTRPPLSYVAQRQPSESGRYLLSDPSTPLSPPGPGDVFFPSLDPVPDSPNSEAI
Assay: Cell-Based Binding High-Content Assay For mVISTA (HC CBA mVISTA)
Settings: 293T cells expressing mouse VISTA; competition with biotinylated peptide (2 nM); read-out: HC CBA mVISTA IC50
Method in brief: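 Read-out: Alexa 647–streptavidin signal imaged on fixed, Hoechst-stained mVISTA-293T cells, with IC50 taken from a four-parameter logistic curve. Compounds competed with 2 nM biotinylated peptide for 30 min at room temperature, tested under both no-wash and wash (1 h compound, media exchange, 1 h) formats.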

Row | Structure (SMILES) | IC50
1 | CCCCCCN1CC(=O)N[C@@H](Cc2ccc(O)cc2)C(=O)N[C@@H](CCCCC)C(=O)N[C@@H](CC(N)=O)C(=O)N[C@@H](CCCNC(=N)N)C(=O)N[C@@H](CC(C)C)C(=O)N[C@@H](CCCCC)C(=O)N2CCC[C@H]2C(=O)N[C@@H](C(C)C)C(=O)N[C@@H](C)C(=O)N[C@H](C(=O)NCC(N)=O)CSCC(=O)N[C@@H](Cc2ccccc2)C(=O)N[C@@H](Cc2ccc(O)cc2)C(=O)N[C@@H](CC(=O)O)C1=O [Example 1006] ({CH2CO}-FYD[NHexGly]Y[Ahp(2)]NRL[Ahp(2)]PVACG-NH2; thioether N-14) | 0.0386 µM
2 | CCCCCCN1CC(=O)N[C@@H](Cc2ccc(O)cc2)C(=O)N[C@@H](CCCC)C(=O)NCC(=O)N[C@@H](CCCNC(=N)N)C(=O)N[C@@H](CC(C)C)C(=O)N[C@@H](CCCCC)C(=O)N2CCC[C@H]2C(=O)N[C@@H](C(C)C)C(=O)N[C@@H](C)C(=O)N[C@H](C(=O)NCC(=O)O)CSCC(=O)N[C@@H](Cc2ccccc2)C(=O)N[C@@H](Cc2ccc(O)cc2)C(=O)N[C@@H](CC(=O)O)C1=O [Example 1007] ({CH2CO}-FYD[NHexGly]Y[Nle]GRL[Ahp(2)]PVACG-OH; thioether N-14) | 0.0151 µM
3 | CCCCCCN1CC(=O)N[C@@H](Cc2ccc(O)cc2)C(=O)N[C@@H](CC(C)C)C(=O)N[C@@H](CC(N)=O)C(=O)N[C@@H](CCCNC(=N)N)C(=O)N[C@@H](CC(C)C)C(=O)N[C@@H](CCCCC)C(=O)N2CCC[C@H]2C(=O)N[C@@H](C(C)C)C(=O)N[C@@H](C)C(=O)N[C@H](C(=O)NCC(=O)O)CSCC(=O)N[C@@H](Cc2ccccc2)C(=O)N[C@@H](Cc2ccc(O)cc2)C(=O)N[C@@H](CC(=O)O)C1=O [Example 1008] ({CH2CO}-FYD[NHexGly]YLNRL[Ahp(2)]PVACG-OH; thioether N-14) | 0.0349 µM
4 | CCCCCCN1CC(=O)N[C@@H](Cc2ccc(O)cc2)C(=O)N[C@@H](CCCC)C(=O)NCC(=O)N[C@@H](CCCNC(=N)N)C(=O)N[C@@H](CC(C)C)C(=O)N[C@@H](CCCCC)C(=O)N2CCC[C@H]2C(=O)N[C@@H](C(C)C)C(=O)N[C@@H](CC(=O)O)C(=O)N[C@H](C(=O)NCC(=O)O)CSCC(=O)N[C@@H](Cc2ccccc2)C(=O)N[C@@H](Cc2ccc(O)cc2)C(=O)N[C@@H](CC(=O)O)C1=O [Example 1009] ({CH2CO}-FYD[NHexGly]Y[Nle]GRL[Ahp(2)]PVDCG-OH; thioether N-14) | 0.008 µM
5 | CCCCCCN1CC(=O)N[C@@H](Cc2ccc(O)cc2)C(=O)N[C@@H](CCCC)C(=O)N[C@@H](CC(=O)O)C(=O)N[C@@H](CCCNC(=N)N)C(=O)N[C@@H](CC(C)C)C(=O)N[C@@H](CCCCC)C(=O)N2CCC[C@H]2C(=O)N[C@@H](C(C)C)C(=O)N[C@@H](CC(=O)O)C(=O)N[C@H](C(=O)NCC(=O)O)CSCC(=O)N[C@@H](Cc2ccccc2)C(=O)N[C@@H](Cc2ccc(O)cc2)C(=O)N[C@@H](CC(=O)O)C1=O [Example 1010] ({CH2CO}-FYD[NHexGly]Y[Nle]DRL[Ahp(2)]PVDCG-OH; thioether N-14) | 0.0056 µM
6 | CCCCCCN1CC(=O)N[C@@H](Cc2ccc(O)cc2)C(=O)N[C@@H](CC(C)C)C(=O)N[C@@H](CC(N)=O)C(=O)N[C@@H](CCCNC(=N)N)C(=O)N[C@@H](CC(C)C)C(=O)N[C@@H](CCCCC)C(=O)N2CCC[C@H]2C(=O)N[C@@H](C(C)C)C(=O)N[C@@H](CC(=O)O)C(=O)N[C@H](C(=O)NCC(=O)O)CSCC(=O)N[C@@H](Cc2ccccc2)C(=O)N[C@@H](Cc2ccc(O)cc2)C(=O)N[C@@H](CC(=O)O)C1=O [Example 1011] ({CH2CO}-FYD[NHexGly]YLNRL[Ahp(2)]PVDCG-OH; thioether N-14) | 0.0159 µM
7 | CCCCCCN1CC(=O)N[C@@H](Cc2ccc(O)cc2)C(=O)N[C@@H](CCCNC(=N)N)C(=O)N[C@@H](CC(N)=O)C(=O)N[C@@H](CCCNC(=N)N)C(=O)N[C@@H](CC(C)C)C(=O)N[C@@H](CCCCC)C(=O)N2CCC[C@H]2C(=O)N[C@@H](C(C)C)C(=O)N[C@@H](CC(=O)O)C(=O)N[C@H](C(=O)NCC(=O)O)CSCC(=O)N[C@@H](Cc2ccccc2)C(=O)N[C@@H](Cc2ccc(O)cc2)C(=O)N[C@@H](CC(=O)O)C1=O [Example 1012] ({CH2CO}-FYD[NHexGly]YRNRL[Ahp(2)]PVDCG-OH; thioether N-14) | 0.0211 µM
8 | CCCCCCN1CC(=O)N[C@@H](Cc2ccc(O)cc2)C(=O)N[C@@H](CCCCC)C(=O)N[C@@H](CC(=O)O)C(=O)N[C@@H](CCCNC(=N)N)C(=O)N[C@@H](CC(C)C)C(=O)N[C@@H](CCCCC)C(=O)N2CCC[C@H]2C(=O)N[C@@H](C(C)C)C(=O)N[C@@H](CC(=O)O)C(=O)N[C@H](C(=O)NCC(=O)O)CSCC(=O)N[C@@H](Cc2ccccc2)C(=O)N[C@@H](Cc2ccc(O)cc2)C(=O)N[C@@H](CC(=O)O)C1=O [Example 1013] ({CH2CO}-FYD[NHexGly]Y[Ahp(2)]DRL[Ahp(2)]PVDCG-OH; thioether N-14) | 0.0171 µM
9 | CCCCCCN1CC(=O)N[C@@H](Cc2ccc(O)cc2)C(=O)N[C@@H](CC(C)C)C(=O)N[C@@H](CC(=O)O)C(=O)N[C@@H](CCCNC(=N)N)C(=O)N[C@@H](CC(C)C)C(=O)N[C@@H](CCCCC)C(=O)N2CCC[C@H]2C(=O)N[C@@H](C(C)C)C(=O)N[C@@H](CC(=O)O)C(=O)N[C@H](C(=O)NCC(N)=O)CSCC(=O)N[C@@H](Cc2ccccc2)C(=O)N[C@@H](Cc2ccc(O)cc2)C(=O)N[C@@H](CC(=O)O)C1=O [Example 1014] ({CH2CO}-FYD[NHexGly]YLDRL[Ahp(2)]PVDCG-NH2; thioether N-14) | 0.0184 µM
10 | CCCCCCN1CC(=O)N[C@@H](Cc2ccc(O)cc2)C(=O)N[C@@H](CCCCC)C(=O)N[C@@H](CC(=O)O)C(=O)N[C@@H](CCCNC(=N)N)C(=O)N[C@@H](CC(C)C)C(=O)N[C@@H](CCCCC)C(=O)N2CCC[C@H]2C(=O)N[C@@H](C(C)C)C(=O)N[C@@H](CC(=O)O)C(=O)N[C@H](C(=O)NCC(N)=O)CSCC(=O)N[C@@H](Cc2ccccc2)C(=O)N[C@@H](Cc2ccc(O)cc2)C(=O)N[C@@H](CC(=O)O)C1=O [Example 1015] ({CH2CO}-FYD[NHexGly]Y[Ahp(2)]DRL[Ahp(2)]PVDCG-NH2; thioether N-14) | 0.0087 µM
11 | CCCCCCN1CC(=O)N[C@@H](Cc2ccc(O)cc2)C(=O)N[C@@H](CC(C)C)C(=O)NCC(=O)N[C@@H](CCCNC(=N)N)C(=O)N[C@@H](CC(C)C)C(=O)N[C@@H](CCCCC)C(=O)N2CCC[C@H]2C(=O)N[C@@H](C(C)C)C(=O)N[C@@H](CC(=O)O)C(=O)N[C@H](C(=O)NCC(=O)O)CSCC(=O)N[C@@H](Cc2ccccc2)C(=O)N[C@@H](Cc2ccc(O)cc2)C(=O)N[C@@H](CC(=O)O)C1=O [Example 1016] ({CH2CO}-FYD[NHexGly]YLGRL[Ahp(2)]PVDCG-OH; thioether N-14) | 0.021 µM
12 | CCCCCCN1CC(=O)N[C@@H](Cc2ccc(O)cc2)C(=O)N[C@@H](CCCC)C(=O)NCC(=O)N[C@@H](CCCNC(=N)N)C(=O)N[C@@H](CC(C)C)C(=O)N[C@@H](CCCCC)C(=O)N2CCC[C@H]2C(=O)N[C@@H](C(C)C)C(=O)N[C@@H](CC(=O)O)C(=O)N[C@H](C(=O)NCC(N)=O)CSCC(=O)N[C@@H](Cc2ccccc2)C(=O)N[C@@H](Cc2ccc(O)cc2)C(=O)N[C@@H](CC(=O)O)C1=O [Example 1017] ({CH2CO}-FYD[NHexGly]Y[Nle]GRL[Ahp(2)]PVDCG-NH2; thioether N-14) | 0.034 µM
13 | CCCCCCN1CC(=O)N[C@@H](Cc2ccc(O)cc2)C(=O)N[C@@H](C(C)C)C(=O)NCC(=O)N[C@@H](CCCNC(=N)N)C(=O)N[C@@H](CC(C)C)C(=O)N[C@@H](CCCCC)C(=O)N2CCC[C@H]2C(=O)N[C@@H](C(C)C)C(=O)N[C@@H](CC(=O)O)C(=O)N[C@H](C(=O)NCC(=O)O)CSCC(=O)N[C@@H](Cc2ccccc2)C(=O)N[C@@H](Cc2ccc(O)cc2)C(=O)N[C@@H](CC(=O)O)C1=O [Example 1018] ({CH2CO}-FYD[NHexGly]YVGRL[Ahp(2)]PVDCG-OH; thioether N-14) | 0.0339 µM
14 | CCCCCCN1CC(=O)N[C@@H](Cc2ccc(O)cc2)C(=O)N[C@@H](CCCC)C(=O)N[C@@H](CC(N)=O)C(=O)N[C@@H](CCCNC(N)=O)C(=O)N[C@@H](CC(C)C)C(=O)N[C@@H](CCCCC)C(=O)N2CCC[C@H]2C(=O)N[C@@H](C(C)C)C(=O)N[C@@H](CC(=O)O)C(=O)N[C@H](C(=O)NCC(=O)O)CSCC(=O)N[C@@H](Cc2ccccc2)C(=O)N[C@@H](Cc2ccc(O)cc2)C(=O)N[C@@H](CC(=O)O)C1=O [Example 1019] ({CH2CO}-FYD[NHexGly]Y[Nle]N[Cit]L[Ahp(2)]PVDCG-OH; thioether N-14) | 0.0079 µM
15 | CCCCCCN1CC(=O)N[C@@H](Cc2ccc(O)cc2)C(=O)N[C@@H](CCCC)C(=O)N[C@@H](CC(N)=O)C(=O)N[C@@H](CCCNC(=N)N)C(=O)N[C@@H](CC(C)C)C(=O)N[C@@H](CCCCC)C(=O)N2CCC[C@H]2C(=O)N[C@@H](C(C)C)C(=O)N[C@@H](CC(=O)O)C(=O)N[C@H](C(=O)NCC(=O)O)CSCC(=O)N[C@@H](Cc2ccccc2)C(=O)N[C@@H](Cc2ccc(O)cc2)C(=O)N[C@@H](CC(=O)O)C1=O [Example 1020] ({CH2CO}-FYD[NHexGly]Y[Nle]NRL[Ahp(2)]PVDCG-OH; thioether N-14) | 0.0225 µM
16 | CCCCCCN1CC(=O)N[C@@H](Cc2ccc(O)cc2)C(=O)N[C@@H](CCCC)C(=O)N[C@@H](CC(=O)O)C(=O)N[C@@H](CCCNC(=N)N)C(=O)N[C@@H](CC(C)C)C(=O)N[C@@H](CCCCC)C(=O)N2CCC[C@H]2C(=O)N[C@@H](C(C)C)C(=O)N[C@@H](CCCCC)C(=O)N[C@H](C(=O)NCC(=O)O)CSCC(=O)N[C@@H](Cc2ccccc2)C(=O)N[C@@H](Cc2ccc(O)cc2)C(=O)N[C@@H](CC(=O)O)C1=O [Example 1021] ({CH2CO}-FYD[NHexGly]Y[Nle]DRL[Ahp(2)]PV[Ahp(2)]CG-OH; thioether N-14) | 0.0322 µM
